ChEMBL document CHEMBL1201862, “PubChem BioAssay data set” (2004)
Active and inactive are the calls of the source.

What was measured:
[1] = bead-based luminescence quenchers, dual-tagged ARNT – biochemical, AlphaScreen, cherry-pick, artefact control for ARNT-TACC3 interaction inhibitor project, dose response (AID 651705); format: functional;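 further: AlphaScreen bead proximity signal that flags compounds interfering with the detection technology; potency reflects signal decrease which marks the compound as an assay artifact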
[2] = molecular target: T1, Tyrosine-protein phosphatase non-receptor type 22 (Homo sapiens, UniProt Q9Y2R2); test: lymphoid phosphatase LYP inhibitors – biochemical, selectivity assay for STEP inhibitor project, dose response (AID 624241); format: functional
T1 sequence (Q9Y2R2 whole entry): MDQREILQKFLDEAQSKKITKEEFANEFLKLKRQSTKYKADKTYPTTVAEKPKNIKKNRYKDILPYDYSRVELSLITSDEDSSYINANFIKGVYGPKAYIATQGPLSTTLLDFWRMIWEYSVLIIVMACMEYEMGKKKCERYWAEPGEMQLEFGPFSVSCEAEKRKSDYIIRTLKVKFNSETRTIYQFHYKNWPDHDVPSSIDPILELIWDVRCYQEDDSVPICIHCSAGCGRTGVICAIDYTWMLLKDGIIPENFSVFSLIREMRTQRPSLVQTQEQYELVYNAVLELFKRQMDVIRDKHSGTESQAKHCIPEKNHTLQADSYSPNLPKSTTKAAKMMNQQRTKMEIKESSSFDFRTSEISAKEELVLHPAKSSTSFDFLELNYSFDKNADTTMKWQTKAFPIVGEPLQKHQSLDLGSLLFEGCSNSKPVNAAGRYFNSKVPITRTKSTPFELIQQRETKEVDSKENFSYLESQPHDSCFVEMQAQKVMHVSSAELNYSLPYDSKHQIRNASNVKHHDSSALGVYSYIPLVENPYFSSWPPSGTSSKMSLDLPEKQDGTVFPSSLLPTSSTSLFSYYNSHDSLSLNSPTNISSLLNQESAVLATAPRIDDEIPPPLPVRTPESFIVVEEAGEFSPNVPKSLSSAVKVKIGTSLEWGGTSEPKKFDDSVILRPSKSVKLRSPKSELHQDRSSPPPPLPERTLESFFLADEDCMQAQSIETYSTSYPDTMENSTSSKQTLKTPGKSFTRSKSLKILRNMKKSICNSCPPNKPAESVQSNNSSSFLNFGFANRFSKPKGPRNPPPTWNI

[3] = molecular target: Tyrosine-protein phosphatase non-receptor type 11 (Homo sapiens, UniProt Q06124); test: PTPN11 enzyme inhibitors – biochemical, selectivity assay for STEP inhibitor project, dose response (AID 602367); format: functional; settings: read-out: IC50_Mean
Tyrosine-protein phosphatase non-receptor type 11, sequence (Q06124 whole entry): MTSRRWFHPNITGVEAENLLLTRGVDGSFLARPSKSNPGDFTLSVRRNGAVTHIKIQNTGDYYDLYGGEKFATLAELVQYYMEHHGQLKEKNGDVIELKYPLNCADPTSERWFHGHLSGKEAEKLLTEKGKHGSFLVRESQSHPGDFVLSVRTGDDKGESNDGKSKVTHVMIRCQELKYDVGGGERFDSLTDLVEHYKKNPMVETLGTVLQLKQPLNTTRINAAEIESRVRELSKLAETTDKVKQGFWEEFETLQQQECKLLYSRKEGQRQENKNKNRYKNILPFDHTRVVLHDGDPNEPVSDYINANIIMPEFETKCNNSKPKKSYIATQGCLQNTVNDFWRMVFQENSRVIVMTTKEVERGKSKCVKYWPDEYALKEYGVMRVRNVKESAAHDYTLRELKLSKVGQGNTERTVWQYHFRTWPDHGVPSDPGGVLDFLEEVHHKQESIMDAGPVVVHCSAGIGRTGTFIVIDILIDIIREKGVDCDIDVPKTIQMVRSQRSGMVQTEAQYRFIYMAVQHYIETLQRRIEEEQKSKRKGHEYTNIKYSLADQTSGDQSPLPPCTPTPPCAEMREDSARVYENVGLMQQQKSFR

[4] = molecular target: T2, Small ubiquitin-related modifier 1 (Homo sapiens, UniProt P63165); test: SUMO1 protein interaction blockers, potency – biochemical, fluorescence polarization, uHTS hits, dose response (AID 624382); format: functional; settings: read-out: IC50_Mean
T2 sequence (P63165 whole entry): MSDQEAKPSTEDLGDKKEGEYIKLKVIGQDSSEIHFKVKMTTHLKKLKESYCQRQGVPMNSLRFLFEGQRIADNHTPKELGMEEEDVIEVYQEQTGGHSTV

Genome polyprotein = Genome polyprotein (dengue virus type 2, UniProt P29990); test: flavivirus cap methylation enzyme inhibition – biochemical, confirmation dose response, primary screen (AID 588689); format: functional
Genome polyprotein, sequence (P29990 2492-3391 limits assumed): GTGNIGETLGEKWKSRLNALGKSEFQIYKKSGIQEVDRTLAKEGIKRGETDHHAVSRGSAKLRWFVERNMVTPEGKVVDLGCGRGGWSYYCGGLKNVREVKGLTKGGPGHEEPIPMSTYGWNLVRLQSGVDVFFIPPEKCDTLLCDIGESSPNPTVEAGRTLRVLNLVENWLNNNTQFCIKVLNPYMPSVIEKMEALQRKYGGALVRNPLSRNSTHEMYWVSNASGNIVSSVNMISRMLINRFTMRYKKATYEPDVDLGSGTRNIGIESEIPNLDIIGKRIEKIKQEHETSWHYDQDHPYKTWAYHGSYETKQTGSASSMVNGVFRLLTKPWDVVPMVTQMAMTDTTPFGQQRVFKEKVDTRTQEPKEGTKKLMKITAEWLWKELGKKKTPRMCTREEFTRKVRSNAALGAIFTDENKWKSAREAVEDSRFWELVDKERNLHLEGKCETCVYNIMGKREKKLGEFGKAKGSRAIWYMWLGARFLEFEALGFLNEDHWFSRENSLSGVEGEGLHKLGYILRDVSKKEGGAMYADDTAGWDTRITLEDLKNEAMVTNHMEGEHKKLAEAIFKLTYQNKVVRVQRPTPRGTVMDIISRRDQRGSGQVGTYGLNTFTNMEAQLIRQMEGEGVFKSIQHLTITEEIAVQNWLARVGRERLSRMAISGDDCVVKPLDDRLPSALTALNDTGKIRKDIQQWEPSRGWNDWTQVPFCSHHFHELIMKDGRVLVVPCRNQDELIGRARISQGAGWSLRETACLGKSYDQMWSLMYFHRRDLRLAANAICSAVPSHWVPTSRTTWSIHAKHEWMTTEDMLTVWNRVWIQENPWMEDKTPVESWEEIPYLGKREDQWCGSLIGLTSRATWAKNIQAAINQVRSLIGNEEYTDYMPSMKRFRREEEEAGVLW

[5] = molecular target: T3, Dual specificity protein phosphatase 3 (Homo sapiens, UniProt P51452); test: VHR1 phosphatase inhibitors, primary screen, biochemical, absorbance, uHTS (AID 1654)
T3 sequence (P51452 whole entry, the tested form may be a part): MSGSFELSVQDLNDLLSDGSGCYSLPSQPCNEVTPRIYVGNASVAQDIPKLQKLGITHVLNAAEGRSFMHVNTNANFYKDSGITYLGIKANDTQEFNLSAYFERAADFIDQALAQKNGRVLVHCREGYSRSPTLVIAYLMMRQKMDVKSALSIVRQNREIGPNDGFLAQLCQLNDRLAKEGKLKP

[6] = molecular target: T4, Carboxy-terminal domain RNA polymerase II polypeptide A small phosphatase 1 (Homo sapiens, UniProt Q9GZU7); test: CTDSP1 inhibitors, concentration-response, biochemical, absorbance readout, ultra-high-throughput screen actives (AID 540297); format: functional
T4 sequence (Q9GZU7 whole entry): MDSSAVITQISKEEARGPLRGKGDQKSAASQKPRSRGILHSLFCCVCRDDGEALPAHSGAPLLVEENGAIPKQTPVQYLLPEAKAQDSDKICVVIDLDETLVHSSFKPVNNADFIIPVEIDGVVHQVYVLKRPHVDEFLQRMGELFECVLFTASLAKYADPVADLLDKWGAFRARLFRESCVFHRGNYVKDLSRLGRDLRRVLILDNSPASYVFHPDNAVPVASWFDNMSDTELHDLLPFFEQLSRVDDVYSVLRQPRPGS

[7] = molecular target: T5, Dual specificity protein phosphatase 6 (Rattus norvegicus, UniProt Q64346); test: inhibition of rat DUSP6 enzyme activity – biochemical, in vitro, primary screen (AID 425)
T5 sequence (Q64346 whole entry): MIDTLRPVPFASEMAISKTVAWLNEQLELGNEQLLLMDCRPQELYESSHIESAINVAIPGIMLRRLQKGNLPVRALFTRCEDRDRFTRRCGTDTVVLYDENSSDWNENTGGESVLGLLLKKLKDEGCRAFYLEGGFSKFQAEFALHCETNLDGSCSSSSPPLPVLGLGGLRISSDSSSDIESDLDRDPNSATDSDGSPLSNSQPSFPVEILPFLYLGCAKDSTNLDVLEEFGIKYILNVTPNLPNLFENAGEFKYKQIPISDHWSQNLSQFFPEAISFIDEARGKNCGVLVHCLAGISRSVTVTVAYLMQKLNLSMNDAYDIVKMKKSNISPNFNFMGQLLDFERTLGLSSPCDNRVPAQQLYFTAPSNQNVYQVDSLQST

[8] = molecular target: T2, Small ubiquitin-related modifier 1; test: SUMO1 protein-protein binding blockers, potency – biochemical, FRET, dose response (AID 624383); format: functional; settings: read-out: IC50_Mean
[9] = molecular target: T6, Low molecular weight phosphotyrosine protein phosphatase (Homo sapiens, UniProt P24666); format: functional; settings: read-out: IC50_Mean
T6 sequence (P24666 whole entry): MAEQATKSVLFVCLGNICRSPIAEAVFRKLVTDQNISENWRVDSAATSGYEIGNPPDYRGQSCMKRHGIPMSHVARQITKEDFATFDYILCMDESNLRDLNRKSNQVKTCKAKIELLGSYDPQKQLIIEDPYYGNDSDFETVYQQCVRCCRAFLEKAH

[10] = molecular target: T3, Dual specificity protein phosphatase 3; test: VHR phosphatase inhibition, dose response, selectivity assay for STEP inhibitor project, biochemical (AID 602374); format: functional; settings: read-out: IC50_Mean
[11] = molecular target: T3, Dual specificity protein phosphatase 3; test: VHR1 phosphatase inhibitors, biochemical (AID 1878)
[12] = molecular target: T6, Low molecular weight phosphotyrosine protein phosphatase; format: functional; settings: read-out: IC50_Mean; remark: listed apart in the source
[13] = molecular target: Tyrosine-protein phosphatase non-receptor type 5 (Homo sapiens, UniProt P54829); test: PTPN5 enzyme inhibition – biochemical, fluorescence intensity, uHTS hits, confirmation (AID 602372); format: functional; settings: read-out: IC50_Mean
Tyrosine-protein phosphatase non-receptor type 5, sequence (P54829 whole entry): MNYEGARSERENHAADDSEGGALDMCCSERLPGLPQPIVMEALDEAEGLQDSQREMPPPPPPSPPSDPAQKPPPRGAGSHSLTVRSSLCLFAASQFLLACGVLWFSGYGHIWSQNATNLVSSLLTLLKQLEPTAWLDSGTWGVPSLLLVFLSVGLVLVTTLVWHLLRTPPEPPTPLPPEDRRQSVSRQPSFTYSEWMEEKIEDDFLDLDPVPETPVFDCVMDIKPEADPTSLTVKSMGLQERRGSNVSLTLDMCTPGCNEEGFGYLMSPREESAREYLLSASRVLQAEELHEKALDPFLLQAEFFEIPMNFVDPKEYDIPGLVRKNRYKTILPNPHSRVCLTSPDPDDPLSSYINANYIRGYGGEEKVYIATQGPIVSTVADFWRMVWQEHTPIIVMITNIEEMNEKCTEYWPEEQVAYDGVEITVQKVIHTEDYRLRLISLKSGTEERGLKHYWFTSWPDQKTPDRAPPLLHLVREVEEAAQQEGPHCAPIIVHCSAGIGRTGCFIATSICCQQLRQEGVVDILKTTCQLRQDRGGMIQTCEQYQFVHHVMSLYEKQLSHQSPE

Caspase-6 = molecular target: T7, Caspase-6 (Homo sapiens, UniProt P55212); test: inhibition of CASP6 peptide cleavage – biochemical, VEID-R110 fluorescence, cherry-pick, dose response (AID 720632)
T7 sequence (P55212 whole entry): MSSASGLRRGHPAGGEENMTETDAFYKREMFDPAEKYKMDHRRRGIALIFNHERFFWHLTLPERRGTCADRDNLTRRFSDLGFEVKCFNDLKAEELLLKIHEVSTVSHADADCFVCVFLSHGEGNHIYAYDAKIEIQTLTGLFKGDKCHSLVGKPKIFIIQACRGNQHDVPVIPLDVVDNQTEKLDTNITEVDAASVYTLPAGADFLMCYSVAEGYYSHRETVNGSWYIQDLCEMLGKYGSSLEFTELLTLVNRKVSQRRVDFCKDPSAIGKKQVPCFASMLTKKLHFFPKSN

Beta-lactamase [14] = molecular target: T8, Beta-lactamase (Pseudomonas aeruginosa, UniProt Q79MP6); test: inhibition of IMP-1 beta-lactamase activity – biochemical, epi-absorbance, selectivity assay for VIM-2 inhibitor project, dose response (AID 1920)
T8 sequence (Q79MP6 whole entry): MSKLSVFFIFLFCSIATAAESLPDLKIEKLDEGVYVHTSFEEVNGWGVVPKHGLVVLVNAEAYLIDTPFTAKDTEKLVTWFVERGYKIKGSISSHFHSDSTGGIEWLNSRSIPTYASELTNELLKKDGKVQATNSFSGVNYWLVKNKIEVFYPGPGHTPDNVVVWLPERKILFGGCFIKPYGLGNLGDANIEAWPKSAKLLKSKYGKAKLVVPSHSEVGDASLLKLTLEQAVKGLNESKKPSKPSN

Beta-lactamase [15] = molecular target: Beta-lactamase (Salmonella choleraesuis (strain SC-B67), UniProt Q5J463); test: Epi-absorbance-based counterscreen for selective VIM-2 inhibitors: dose response biochemical high throughput screening assay to identify inhibitors of TEM-1 serine-beta-lactamase.
Beta-lactamase (Salmonella choleraesuis (strain SC-B67), UniProt Q5J463), sequence (Q5J463 whole entry): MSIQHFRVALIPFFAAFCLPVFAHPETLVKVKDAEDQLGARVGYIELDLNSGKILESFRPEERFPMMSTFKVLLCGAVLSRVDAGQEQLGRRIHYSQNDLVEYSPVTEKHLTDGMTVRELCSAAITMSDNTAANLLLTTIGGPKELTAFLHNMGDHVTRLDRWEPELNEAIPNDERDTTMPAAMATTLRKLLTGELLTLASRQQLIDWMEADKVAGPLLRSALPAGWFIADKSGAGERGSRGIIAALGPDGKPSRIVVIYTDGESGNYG

Beta-lactamase [16] = molecular target: T8, Beta-lactamase; test: […] counterscreen for selective VIM-2 inhibitors: dose response biochemical high throughput screening assay to identify inhibitors of IMP-1 metallo-beta-lactamase.
[17] = molecular target: T9, High affinity choline transporter 1 (Homo sapiens, UniProt Q9GZV3); test: human choline transporter radiolabel uptake blockers – cell-based, 3H-choline uptake, CHT LV-AA trafficking mutant, CRC, dose response (AID 602208); format: functional
T9 sequence (Q9GZV3 whole entry): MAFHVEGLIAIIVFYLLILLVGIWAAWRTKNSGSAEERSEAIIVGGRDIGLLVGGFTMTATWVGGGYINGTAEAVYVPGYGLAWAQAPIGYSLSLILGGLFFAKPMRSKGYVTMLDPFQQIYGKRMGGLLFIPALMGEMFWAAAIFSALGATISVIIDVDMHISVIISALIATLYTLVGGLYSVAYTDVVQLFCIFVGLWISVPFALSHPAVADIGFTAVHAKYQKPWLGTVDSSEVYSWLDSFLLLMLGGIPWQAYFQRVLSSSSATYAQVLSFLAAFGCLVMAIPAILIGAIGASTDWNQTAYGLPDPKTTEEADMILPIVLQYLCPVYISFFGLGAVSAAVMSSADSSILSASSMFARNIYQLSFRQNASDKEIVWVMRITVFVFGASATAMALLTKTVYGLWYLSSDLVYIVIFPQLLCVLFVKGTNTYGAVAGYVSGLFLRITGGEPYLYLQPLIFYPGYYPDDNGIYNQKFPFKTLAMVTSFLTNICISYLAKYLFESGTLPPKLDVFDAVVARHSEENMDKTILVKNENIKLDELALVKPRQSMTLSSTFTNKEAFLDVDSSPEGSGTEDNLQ

[18] = molecular target: T9, High affinity choline transporter 1; test: human choline transporter blockers, potency – cell-based, 5-point CRC, membrane potential dye, dose response (AID 504840); format: functional
[19] = molecular target: T9, High affinity choline transporter 1; test: human choline transporter blockers, potency – cell-based, 10-point CRC, membrane potential dye, dose response (AID 588401); format: functional;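 further: membrane potential dye fluorescence of choline-evoked depolarization via CHT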

For `O=C(Oc1cccc2cccnc12)c1ccco1`, which AC50 [1] is on record?
Its AC50 is 131 µM (active).

Which IC50 [2] does the source give for `Cc1c(CCC(=O)O)c(=O)oc2c(C)c(OCc3cc4c(cc3Cl)OCO4)ccc12` here?
The IC50 was 9 µM (active).

And the IC50 [3]?
The IC50 was 1.51 µM (active).

And the IC50 [4]?
The IC50 was > 66.6 µM (inactive).

And the IC50 (Genome polyprotein)?
The IC50 was 51.7 µM (active).

And the IC50 [5]?
Its IC50 is 17.4 µM (active).

What about the IC50 [6] of the same compound?
Its IC50 is 3.17 µM (active).

What about the IC50 [7] of the same compound?
The IC50 was 78.7 µM (active).

What about the IC50 [8] of the same compound?
Its IC50 is 10.3 µM (active).

What about the IC50 [9] of the same compound?
Its IC50 is 8.04 µM (active).

And the IC50 [10]?
The IC50 was 1.67 µM (active).

What about the IC50 [11] of the same compound?
The IC50 was 2.99 µM (active).

What about the IC50 [12] of the same compound?
Its IC50 is 24.9 µM (inactive).

What about the IC50 [13] of the same compound?
The IC50 was 3.97 µM (active).

What about the AC50 (Caspase-6) of the same compound?
The AC50 was 7.15 µM (active).

With `CCCCn1c(-c2ccoc2C)n[nH]c1=S` as the compound, how does the IC50 (Beta-lactamase [14]) read?
The IC50 was > 59.6 µM (inactive).

What about the IC50 (Beta-lactamase [15]) of the same compound?
The IC50 was > 59.6 µM (inactive).

And the IC50 (Beta-lactamase [16])?
Its IC50 is > 59.6 µM (inactive).

With `CC1CCC(NC(=O)c2cccc(S(=O)(=O)NCc3ccccc3)c2)CC1` (stereo unspecified) as the compound, how does the IC50 [17] read?
Its IC50 is 8.42 µM (active).

What about the IC50 [18] of the same compound?
Its IC50 is 4.07 µM (active).

And the IC50 [19]?
The IC50 was 3.64 µM (active).
